Consider 2 molecules from ChEMBL document CHEMBL2407043, “Hydantoin based inhibitors of MMP13--discovery of AZD6605” (Bioorg Med Chem Lett, 2013).

In one series the target is Cytochrome P450 2D6 (Homo sapiens, UniProt P10635). Briefly: Inhibition of human CYP2D6. The series is classed as ADME.
Series [1] is described as follows: Thermodynamic solubility of the compound in phosphate buffer at pH 7.4 at 25 degC after 24 hrs. As to conditions: read-out: Therm_solubility.
Series [2] is described as follows: in vitro. As to conditions: human, liver microsomes. Background: Microsomes from liver hold many membrane-bound enzymes, among them those of drug oxidation.
Series [3] in a line: Intrinsic clearance in dog liver microsomes. The series is classed as ADME, Canis lupus familiaris, Microsome. As to conditions: read-out: CLH.
Series [4] concerns the target Macrophage metalloelastase (Homo sapiens, UniProt P39900). Nature of the series: Inhibition of MMP-12 (unknown origin) by fluorescence assay.
In a further series the target is Cytochrome P450 2C9 (Homo sapiens, UniProt P11712). Briefly: Inhibition of human CYP2C9. In kind it is ADME.
Cytochrome P450 2C9, sequence (P11712 whole entry): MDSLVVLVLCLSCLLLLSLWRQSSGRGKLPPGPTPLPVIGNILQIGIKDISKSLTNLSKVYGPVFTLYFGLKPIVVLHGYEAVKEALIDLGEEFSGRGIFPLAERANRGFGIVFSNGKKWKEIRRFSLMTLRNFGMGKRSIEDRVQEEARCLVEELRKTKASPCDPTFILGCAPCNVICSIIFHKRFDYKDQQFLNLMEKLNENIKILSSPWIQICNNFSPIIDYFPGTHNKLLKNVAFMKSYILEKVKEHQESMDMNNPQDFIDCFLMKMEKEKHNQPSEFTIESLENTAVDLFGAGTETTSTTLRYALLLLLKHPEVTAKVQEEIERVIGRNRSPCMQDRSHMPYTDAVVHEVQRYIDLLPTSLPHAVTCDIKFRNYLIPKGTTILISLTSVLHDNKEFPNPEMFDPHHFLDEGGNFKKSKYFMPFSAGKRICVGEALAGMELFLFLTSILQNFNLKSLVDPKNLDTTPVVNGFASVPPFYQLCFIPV
The nature of series [5]: Intrinsic clearance in rat liver microsomes. The series is classed as ADME, Microsome. As to conditions: read-out: CLH.
Another series concerns the target Cytochrome P450 2C19 (Homo sapiens, UniProt P33261). Nature of the series: Inhibition of human CYP2C19. In kind it is ADME.
The next series deals with T1, Cytochrome P450 1A2 (Homo sapiens, UniProt P05177).
T1 sequence (P05177 whole entry): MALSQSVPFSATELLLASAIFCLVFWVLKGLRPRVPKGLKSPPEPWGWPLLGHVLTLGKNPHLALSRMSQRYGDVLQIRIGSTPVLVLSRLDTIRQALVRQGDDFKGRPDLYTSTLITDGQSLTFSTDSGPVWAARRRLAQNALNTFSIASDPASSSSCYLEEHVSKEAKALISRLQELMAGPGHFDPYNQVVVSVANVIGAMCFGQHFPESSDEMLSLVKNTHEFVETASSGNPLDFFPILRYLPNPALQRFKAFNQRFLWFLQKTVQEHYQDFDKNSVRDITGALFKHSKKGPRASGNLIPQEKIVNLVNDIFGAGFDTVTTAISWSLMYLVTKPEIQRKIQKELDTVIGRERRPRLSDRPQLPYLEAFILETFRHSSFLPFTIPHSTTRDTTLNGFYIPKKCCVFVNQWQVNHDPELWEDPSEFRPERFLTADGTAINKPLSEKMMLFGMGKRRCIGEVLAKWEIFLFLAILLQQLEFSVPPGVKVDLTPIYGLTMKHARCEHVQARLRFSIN
Briefly: Inhibition of human CYP1A2. In kind it is ADME.

The next series has as its target Cytochrome P450 3A4 (Homo sapiens, UniProt P08684). Briefly: Inhibition of human CYP3A4. In kind it is ADME.
Series [6] can be described thus: Volume of distribution at steady state in rat at 2 mg/kg, iv and 5 mg/kg, po. The note with it: in vivo, read-out: Vdss. In kind it is ADME, organism-based.
A further series concerns Salmonella typhimurium. Nature of the series: Mutagenic activity in Salmonella typhimurium by Ames assay. In kind it is toxicity, organism-based. The note with it: salmonella enterica subsp. enterica serovar typhimurium. In general terms: The Ames test uses bacterial strains that need an amino acid and regain growth without it when mutated back.
Series [7] is described as follows: Solubility of compound in fasted state simulated intestinal fluid. The series is classed as physicochemical.
The species named for series [8] is Rattus norvegicus. Nature of the series: Toxicity in rat assessed as change in body weight after 28 days. The series is classed as organism-based. As to conditions: in vivo, 672 h.
Series [9] in a line: Fraction unbound in rat plasma. The series is classed as ADME, cell-free.
The nature of series [10]: Genotoxicity in mouse lymphoma cells. In kind it is toxicity, cell-based.
Series [11] can be described thus: Oral bioavailability in dog at 1 mg/kg. In kind it is ADME, organism-based, Canis lupus familiaris. As to conditions: in vivo.
The species named for series [12] is Rattus norvegicus. Briefly: Toxicity in rat assessed as change in connective tissue after 28 days. In kind it is organism-based. The note with it: in vivo, 672 h.
For series [13], the target named is Matrix metalloproteinase-14 (Homo sapiens, UniProt P50281).
The species entered for series [14] is Rattus norvegicus. Nature of the series: Toxicity in rat assessed as mortality after 28 days. In kind it is organism-based. As to conditions: in vivo, 672 h.
The nature of series [15]: Clearance in rat at 2 mg/kg, iv and 5 mg/kg, po. The series is classed as ADME, organism-based. As to conditions: in vivo.
Series [16] is described as follows: in vitro. The note with it: human, Caco-2.
The species named for the next series is Cavia porcellus. Briefly: animal or person. The note with it: Dunkin Hartley, sc, 2016 h, read-out: INH.
The nature of series [17]: Half life in dog at 0.5 mg/kg, iv and 1 mg/kg, po. In kind it is ADME, organism-based, Canis lupus familiaris. The note with it: in vivo.
Series [18] in a line: Fraction unbound in dog plasma. In kind it is ADME, cell-free, Canis lupus familiaris.
Series [19] can be described thus: Volume of distribution at steady state in dog at 0.5 mg/kg, iv and 1 mg/kg, po. The note with it: in vivo, read-out: Vdss. The series is classed as ADME, organism-based, Canis lupus familiaris.
Series [20] is described as follows: Oral bioavailability in rat at 5 mg/kg. In kind it is ADME, organism-based. The note with it: in vivo.
The next series in a line: physchem. The note with it: buffer, pH 7.4.
Series [21] is described as follows: Clearance in dog at 0.5 mg/kg, iv and 1 mg/kg, po. In kind it is ADME, organism-based, Canis lupus familiaris. The note with it: in vivo.
A short description of series [22]: Fraction unbound in human plasma. The series is classed as ADME, cell-free.
The species named for series [23] is Rattus norvegicus. Nature of the series: Toxicity in rat assessed as fibrodysplasia after 28 days. In kind it is organism-based. The note with it: in vivo, 672 h.
For series [24], the species on record is Rattus norvegicus. Briefly: Toxicity in rat assessed as change in clinical chemistry or hematological parameters after 28 days. The series is classed as organism-based. The note with it: in vivo, 672 h.
Series [25] can be described thus: Apparent permeability across basolateral to apical side in human Caco2 cells at 10 uM. The series is classed as ADME, cell-based. As to conditions: Caco-2. A general note: Caco-2 monolayers are a common model of the intestinal barrier.
The species entered for series [26] is Rattus norvegicus. Briefly: Toxicity in rat assessed as change in food and water consumption after 28 days. In kind it is organism-based. The note with it: in vivo, 672 h.
Series [27] can be described thus: Intrinsic clearance in human hepatocytes measured per 10^6 cells. In kind it is ADME, cell-based, Hepatocyte. As to conditions: read-out: CLH.
The nature of series [28]: Half life in rat at 2 mg/kg, iv and 5 mg/kg, po. In kind it is ADME, organism-based. The note with it: in vivo.

The structures appear in SMILES notation. In brackets after ≈: the same amount, converted by molar mass.

Cytochrome P450 2D6, sequence (P10635 whole entry): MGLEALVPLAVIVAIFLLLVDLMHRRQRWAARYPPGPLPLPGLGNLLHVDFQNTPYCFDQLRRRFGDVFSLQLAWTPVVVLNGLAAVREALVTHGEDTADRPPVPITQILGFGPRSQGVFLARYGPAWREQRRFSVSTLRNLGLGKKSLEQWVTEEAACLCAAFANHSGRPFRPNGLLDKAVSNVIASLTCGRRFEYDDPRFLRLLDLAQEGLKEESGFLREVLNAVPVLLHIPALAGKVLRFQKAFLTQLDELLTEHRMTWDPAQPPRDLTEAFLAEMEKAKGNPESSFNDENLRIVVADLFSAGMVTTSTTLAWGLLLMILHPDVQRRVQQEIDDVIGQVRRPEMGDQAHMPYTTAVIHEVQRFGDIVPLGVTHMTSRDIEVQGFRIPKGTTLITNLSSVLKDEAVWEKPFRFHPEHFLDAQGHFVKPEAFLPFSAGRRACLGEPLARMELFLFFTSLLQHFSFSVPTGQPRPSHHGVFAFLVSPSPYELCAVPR
Cytochrome P450 2C19, sequence (P33261 whole entry): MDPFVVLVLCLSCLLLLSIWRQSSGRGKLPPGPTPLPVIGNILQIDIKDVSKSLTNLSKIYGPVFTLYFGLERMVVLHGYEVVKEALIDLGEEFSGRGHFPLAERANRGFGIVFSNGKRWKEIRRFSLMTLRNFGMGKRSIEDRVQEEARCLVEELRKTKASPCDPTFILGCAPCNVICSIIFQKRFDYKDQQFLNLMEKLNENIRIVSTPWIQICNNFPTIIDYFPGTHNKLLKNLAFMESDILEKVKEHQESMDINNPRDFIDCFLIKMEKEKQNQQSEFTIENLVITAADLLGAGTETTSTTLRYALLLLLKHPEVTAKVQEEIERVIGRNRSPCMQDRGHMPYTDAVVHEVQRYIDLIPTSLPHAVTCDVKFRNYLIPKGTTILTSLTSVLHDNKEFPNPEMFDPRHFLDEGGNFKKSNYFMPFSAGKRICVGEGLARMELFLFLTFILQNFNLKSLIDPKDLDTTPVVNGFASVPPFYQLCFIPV
Cytochrome P450 3A4, sequence (P08684 whole entry): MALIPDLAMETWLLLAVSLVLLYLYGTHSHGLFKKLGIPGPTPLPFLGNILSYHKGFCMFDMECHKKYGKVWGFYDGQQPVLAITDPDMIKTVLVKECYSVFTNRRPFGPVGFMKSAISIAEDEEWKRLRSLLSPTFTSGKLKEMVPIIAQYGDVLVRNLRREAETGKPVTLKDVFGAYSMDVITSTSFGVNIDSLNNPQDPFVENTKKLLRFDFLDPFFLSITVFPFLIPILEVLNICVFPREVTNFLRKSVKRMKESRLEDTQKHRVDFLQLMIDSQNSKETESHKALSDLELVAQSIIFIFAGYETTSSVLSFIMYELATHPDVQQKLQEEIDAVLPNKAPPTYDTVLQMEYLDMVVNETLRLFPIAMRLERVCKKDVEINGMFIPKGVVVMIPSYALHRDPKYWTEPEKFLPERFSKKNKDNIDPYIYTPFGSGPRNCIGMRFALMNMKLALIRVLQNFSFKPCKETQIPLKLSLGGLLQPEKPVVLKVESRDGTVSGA
Macrophage metalloelastase, sequence (P39900 whole entry): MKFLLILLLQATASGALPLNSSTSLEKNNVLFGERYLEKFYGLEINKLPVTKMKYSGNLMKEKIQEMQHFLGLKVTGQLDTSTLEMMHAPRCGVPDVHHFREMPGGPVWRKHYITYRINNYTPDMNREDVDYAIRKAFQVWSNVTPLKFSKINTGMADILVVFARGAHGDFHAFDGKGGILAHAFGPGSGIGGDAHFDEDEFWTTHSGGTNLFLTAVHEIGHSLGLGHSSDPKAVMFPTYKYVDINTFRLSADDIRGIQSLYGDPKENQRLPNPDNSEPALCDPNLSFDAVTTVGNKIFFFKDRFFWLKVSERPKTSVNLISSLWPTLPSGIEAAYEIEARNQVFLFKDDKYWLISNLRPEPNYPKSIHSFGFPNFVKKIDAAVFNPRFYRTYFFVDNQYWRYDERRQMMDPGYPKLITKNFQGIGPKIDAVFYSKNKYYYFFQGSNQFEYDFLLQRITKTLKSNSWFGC

What is called IC50 is the concentration at which inhibition is half-maximal. Higher therefore signals a need for much substance. With `C[C@]1(CS(=O)(=O)N2CCC(Oc3ccc(C(F)(F)F)cc3)CC2)NC(=O)NC1=O`, the IC50 against Cytochrome P450 2D6 was more than 40 µM; in series [4], 0.0059 µM; at Cytochrome P450 2C9 it was more than 40 µM; against Cytochrome P450 2C19, more than 40 µM; against Cytochrome P450 1A2 it was more than 40 µM; at Cytochrome P450 3A4, more than 40 µM. In [1], the solubility thermodynamic at 24 h came out at 23 µM (≈ 10 µg/mL). Besides, the microsomal CLint (in the series “in vitro [2]”; in series [3]; in series [5]) was less than 10 µL/min/mg throughout.

By solubility is commonly meant the dissolved amount per volume that the medium holds. What is called fraction unbound is the share of the substance not bound to proteins or other matrix. A low value points to extensive binding. In general, bioavailability refers to dose-corrected exposure relative to a reference, in per cent. Low readings indicate poor availability, high ones good availability. The Papp A→B is the apparent permeability from the apical to the basolateral side of a cell layer. Broadly, the half-life is the time in which the quantity being followed falls by half. The low end stands for rapid decline, the high end for slow decline. A word on the logD: it is lipophilicity at a set pH, counting ionised and neutral species. The term Papp B→A denotes the apparent permeability from the basolateral to the apical side of a cell layer. Turning to `C[C@]1(CS(=O)(=O)N2CCC(Oc3ccc(OC(F)(F)C(F)F)cc3)CC2)NC(=O)NC1=O`, the Vd in series [6] and in series [19] was 0.6 L/kg throughout. Further, the Activity entry (with Salmonella typhimurium; in the series filed under Rattus norvegicus [8]; in [10]; in the series listed under Rattus norvegicus [12]; in the series filed under Rattus norvegicus [14]; in the series listed under Rattus norvegicus [23]) was “Non-toxic” in each case. Further, the Activity result in the series listed under Rattus norvegicus [24] and in the series listed under Rattus norvegicus [26] was “Non-toxic” throughout. In addition, the IC50 is more than 10 µM against Cytochrome P450 2D6; 2.22 µM in series [13]; more than 10 µM at Cytochrome P450 2C9; more than 10 µM at Cytochrome P450 2C19; more than 10 µM at Cytochrome P450 1A2; more than 10 µM against Cytochrome P450 3A4. Besides, in series [7], the concentration in solution (solubility) was 14.9 µM (≈ 7.2 µg/mL). Further, in [1], the solubility thermodynamic at 24 h was 6.8 µM (≈ 3.29 µg/mL). For the same molecule, the unbound share (fraction unbound) in series [9] worked out at 0.03; in [18], 0.05; in [22], 0.05. In the series “in vitro [2]”, this molecule displayed a microsomal CLint of less than 2 µL/min/mg. Moreover, the figures for the bioavailability in [11] and in series [20] were 40% and 64%, respectively. Also, the figures for the clearance in series [15] and in series [21] were 0.4 mL/min/kg and 0.2 mL/min/kg, respectively. Moreover, the Papp A→B at 10 µM in “in vitro [16]” was determined as 21 ×10⁻⁶ cm/s. Moreover, in the series filed under Cavia porcellus, the inhibition in vivo at 11 mg/kg/day was 104%. The values for the half-life in [17] and in [28] were 35 h and 16 h, respectively. Moreover, the pH-dependent lipophilicity (logD) in the series “physchem” was determined as 2. The basolateral-to-apical permeability (Papp B→A) at 10 µM in series [25] stood at 52 ×10⁻⁶ cm/s. For the same molecule, in series [27], the hepatocyte CLint is less than 2 µL/min/1e6 cells.
